The results in this text go back to patent US8168596B2, “Use of cycloartane compounds for treating arthritis” (NuLiv Holding Inc., priority 2008, dated 2012).

One assay concerns TIMP1 mRNA. As to the kind of experiment: RT-PCR of TIMP1 mRNA expression in SW1353 cells. The assay is classed as cell-based, human. Conditions: for TIMP1 mRNA expression after AS4 treatment followed by PMA: then 100 ng/mL PMA 24 h; for TIMP mRNA expression after only AS4 treatment: 24 h, no PMA. Here is the method: (§1) First of all, the interaction between TIMP1 mRNA expression and MMP1 mRNA expression in human SW1353 cell line after only AS4 treatment was studied. […] The SW1353 cells were then collected for RT-PCR analysis.
(§2) In a second testing, the effect of AS4 treatment followed by PMA treatment was also studied. The SW1353 cells were first treated with astragaloside IV (AS4) at a concentration of 0.01 μM, 0.1 μM, or 1 μM, followed by incubation for 24 hours. Then PMA was added into each well, followed by incubation for 24 hours. These SW1353 cells were also collected for RT-PCR analysis in the end of the second testing.
(§3) Total RNAs were isolated from the cultured human cells using NucleoSpin RNAII Kit (Macherey-Nagel Inc., PA, USA). Five μg of RNA was reverse transcribed in a total 20 μl transcription mixture. The reaction tube containing primers (oligo(dT)), RNA, 10 mM dNTP Mix, and DEPC-treated water was first incubated at 65° C. for 5 minutes. Eight μl master reaction mixture containing 4 μl 5× cDNA synthesis Buffer, 1 μl 0.1 M DTT, 1 μl RNase OUT™ (40U/μl), 1 μl DEPC-Treated water, and 1 μl SuperScript™II was then added into the reaction tube. The reaction tube was then incubated at 50° C. for 60 minutes, followed by incubation at 85° C. for 5 minutes. Finally, 1 μl RNase H was added at 37° C. and the reaction tube was incubated for 20 minutes. The resulting cDNA was further amplified by PCR. The relevant primers for the following PCR reaction were listed below.
(ii) the TIMP1 forward primer is 5′-AATTCCGACCTCGTCATCAG-3′ (SEQ ID NO: 3) and the TIMP1 reverse primer is 5′-TGCAGTTTTCCAGCAATGAG-3′ (SEQ ID NO: 4); and
(§4) In addition, the PCR reaction of MMP1 cDNA was preformed as follows: 95° C. for 5 min, followed by 35 cycles of 94° C. for 30 sec, 60° C. for 30 sec, and 72° C. for 30 sec, and then 72° C. for 10 min followed by maintaining at 4° C. Similarly, the PCR reaction of TIMP1 cDNA was performed as follows: 94° C. for 5 min, followed by 35 cycles of 94° C. for 30 sec, 60° C. for 30 sec, and 72° C. for 30 sec, and then 72° C. for 10 min followed by maintaining at 4° C. The PCR reaction of GAPDH cDNA was performed as follows: 94° C. for 5 min, followed by 18 cycles of 94° C. for 30 sec, 54° C. for 30 sec, and 72° C. for 30 sec, and then 72° C. for 30 sec followed by maintaining at 4° C. These PCR products were analyzed by electrophoresis on a 1.5% gel.

In another assay the test system is Type II Collagen. As to the kind of experiment: Western blot of Type II Collagen in pre-treated human chondrocytes (HCHs). The assay is classed as cell-based. Conditions: IL-1β-pre-treated HCH culture medium; compounds 0.1 μM, 48 h. A general note: A western blot detects proteins with antibodies after separation by electrophoresis.
Another assay concerns MMP1 mRNA. As to the kind of experiment: RT-PCR of MMP1 mRNA expression in SW1353 cells. The conditions noted are these: for MMP1 mRNA expression after AS4 treatment followed by PMA: then 100 ng/mL PMA 24 h; for MMP1 mRNA expression after only AS4 treatment: 24 h, no PMA. The assay is classed as cell-based, human. Here is the method: as §1, §2, §3
(i) The MMP1 forward primer is 5′-ACTCTGGAGTAATGTCACACCT-3′ (SEQ ID NO: 1), and the MMP1 reverse primer is 5′-GTTGGTCCACCTTTCATCTTCA-3′ (SEQ ID NO: 2);
as §4

The next assay concerns MMP1. As to the kind of experiment: Western blotting of MMP1 protein expression induced by PMA in SW1353 cells (Example 2). The assay is classed as cell-based, human. Conditions: for level of MMP1 protein expression (group without AS4 treatment set as 1): then PMA 100 ng/mL 24 h, culture medium. On the procedure:
Alternatively, the control group was treated with 0.1% dimethyl sulfoxide (DMSO). Phorbol myristate acetate (PMA; Sigma, St. Louis, Mo.) at a concentration of 100 ng/mL was then added into each well and the cells were incubated for 24 hours. The culture medium was collected for western blotting analysis.
Western blotting analysis was carried out based on the following procedure. Cells were washed and lysed in 0.2 mL of lysis buffer (1% NP-40, 50 mM Tris-HCl, pH 7.4, 180 mM NaCl, 1 mM EDTA, 1 mM PMSF, 1 mM NaF, 10 mM Na3VO4) for 30 min at 4° C. After centrifugation at 17500 g for 15 min, the supernatants of cell lysate were collected. Protein concentrations of the samples were measured using the bicinchoninic acid (BCA) protein assay kit according to the manufacturer's protocol (Pierce, Rockford, Ill., USA). Equal amounts of protein samples of concentrated conditioned medium (100 μg) or cell lysate supernatants (50 μg) were mixed with an appropriate volume of 4×SDS sampling buffer and separated on a 8% SDS-PAGE gel. The protein bands separated on the SDS-PAGE gel were blotted onto a polyvinylidene fluoride (PVDF) membrane. The blotted PVDF membrane was washed twice and blocked in freshly prepared Tris-buffered saline (TBS) containing 0.1% Tween-20 and 7% skim milk (TBST) for 2 hours at room temperature. The PVDF membrane was then incubated with a primary antibody against MMP1 protein (Santa Cruz Biotechnology, Santa Cruz, Calif.) for 18 hours at 4° C. Horseradish peroxidase-conjugated anti-goat antibody was used as the secondary antibody. Signals were visualized by an enhanced chemiluminescence kit (Clonetech, Palo Alto, Calif., USA) followed by exposure to X-ray films.
In another testing, the SW1353 cells were treated with 0.1 μM astragaloside IV (AS4), followed by incubation for 24 hours. PMA at a concentration of 100 ng/mL was then added into each well. The culture medium was collected after 6, 12, 18 and 24 hours of PMA treatment for western blotting analysis.

For `CC(C)(O)[C@@H]1CC[C@](C)([C@H]2[C@@H](O)C[C@@]3(C)[C@@H]4C[C@H](O[C@@H]5O[C@H](CO)[C@@H](O)[C@H](O)[C@H]5O)[C@H]5C(C)(C)[C@@H](O[C@@H]6OC[C@@H](O)[C@H](O)[C@H]6O)CC[C@@]56C[C@@]46CC[C@]23C)O1` [AS4, Astragaloside IV], the “TIMP1 mRNA expression after AS4 treatment followed by PMA” value is 1.36 with TIMP1 mRNA (AS4 0.01 μM 24 h), 1.34 with TIMP1 mRNA (AS4 0.1 μM 24 h) and 1.31 in the assay on TIMP1 mRNA (AS4 1 μM 24 h). Also, the “TIMP mRNA expression after only AS4 treatment” value in the assay with TIMP1 mRNA (AS4 0.01 μM) was determined as 0.87; in the assay with TIMP1 mRNA (AS4 0.1 μM), 0.90; in the assay on TIMP1 mRNA (AS4 1 μM) it was 0.84. In addition, the “Type II Collagen, Western blot, relative to Ctrl 1.00” value in the assay with Type II Collagen is recorded as 1.16. Besides, the entries for the “MMP1 mRNA expression after AS4 treatment followed by PMA” value in the assay on MMP1 mRNA (AS4 0.01 μM 24 h), with MMP1 mRNA (AS4 0.1 μM 24 h) and in the assay with MMP1 mRNA (AS4 1 μM 24 h) were 0.98, 0.84 and 0.53, respectively. Besides, the figures for the “MMP1 mRNA expression after only AS4 treatment” value in the assay on MMP1 mRNA (AS4 0.01 μM), with MMP1 mRNA (AS4 0.1 μM) and with MMP1 mRNA (AS4 1 μM) were 0.97, 1.07 and 0.93, respectively. Further, the “level of MMP1 protein expression (group without AS4 treatment set as 1)” value stood at 0.77 in the assay on MMP1 (AS4 0.01 μM 24 h), 0.64 with MMP1 (AS4 0.1 μM 24 h) and 0.55 in the assay on MMP1 (AS4 1 μM 24 h). For the same compound, the “level of expression of MMP1 protein at different time points, compared with only PMA treatment” value with MMP1 (AS4 0.1 μM 24 h, then PMA 100 ng/mL, 6, 12, 18 and 24 hours) is reported as “inhibited”.
